Source: PubChem BioAssay AID1963862 (Molecular Pharmacology Branch, DTP, NCI, 2024)

Tested on: KRAS patient-derived spheroids with HUVEC/MSC, viability
Assay: Anticancer human tumor 941728-121-R-J1-PDC patient-derived lung adenocarcinoma cell line growth inhibition [KRAS2]
Conditions: for IC50: curve of first compound; for viability, T/C: stronger effect = lower value; active means viability on the fitted dose curve at most 10% of control; inactive means the rest
Excerpt: Multicellular complex tumor spheroid response to RAS pathway inhibitors in combination with a targeted agents in patient-derived cell lines with oncogenic KRAS variants from multiple cancer types
A high-throughput screen of multi-cell type tumor spheroids was designed to identify active combinations of targeted small molecules and KRAS pathway inhibitors. Complex spheroids include a stromal component modeled by human endothelial cells (HUVEC) and fibroblasts modeled by human mesenchymal stem cells (MSCs). The concentration ranges selected for each drug and investigational agent were based upon clinically achievable concentrations if the clinical Cmax of the agent was known.
Compounds. The drugs and investigational agents: BI-3406 (NSC825286), BAY-293 (NSC824723), batoprotafib (TNO155; NSC825523), sotorasib (AMG 510; NSC818433), MRTX1257 (NSC819558), elimusertib (BAY 1895344; NSC800525), molibresib (GSK525762; NSC774829), temuterkib (LY3214996; NSC803410), venetoclax (NSC766270), alisertib (NSC759677), olaparib (NSC753686), talazoparib (NSC767125), erdafitinib (NSC781556), ipatasertib (NSC767898), cabozantinib (NSC761068), nintedanib (NSC756659), abemaciclib (NSC768073), docetaxel (NSC628503), trametinib (NSC758246), and sapanisertib (NSC764658) were obtained from the National Cancer Institute (NCI) Developmental Therapeutics Program Chemical Repository. The FDA-approved anticancer drug set is available from the Developmental Therapeutics Program. […] The stock solutions were prepared in dimethyl sulfoxide (DMSO, Sigma-Aldrich, St. Louis, MO, cat. D2650) at 800-fold the tested concentration and stored at -70 degrees C prior to their use. All drugs and investigational agents were tested over a range starting from a high concentration at or near the clinical Cmax and decreasing in half-log increments. If the clinical Cmax for an agent had not been determined, the highest concentration tested was 10 microM.
Cell Culture. All cells were maintained in an incubator at 37 degrees C and 5% CO2 with 95% humidity. The PDC lines were cultured according to standard operating procedures established by the NCI PDMR (https://pdmr.cancer.gov/sops/default.htm). Briefly, all PDCs were thawed and cultured in Matrigel-coated flasks prepared with a working solution of 1X Ham's F-12 nutrient mix, without supplementation (Invitrogen, Waltham, MA, cat. 11765054), 100 U/mL penicillin-streptomycin (Invitrogen, cat. 15140122), and 2.5% Matrigel (Corning Inc., Corning, NY, cat. 354248) for the first three passages. All PDCs were cultured in complete DMEM/F-12 media containing advanced DMEM/F-12 (Invitrogen, cat. 12634028), 4.9% defined fetal bovine serum, heat inactivated (HyClone Laboratories Inc., Logan, UT, cat. SH30070.03HI), 389 ng/mL hydrocortisone (Sigma-Aldrich, cat. H4001), 9.7 ng/mL human EGF recombinant protein (Invitrogen, cat. PHG0313), 23.4 microg/mL adenine (Sigma-Aldrich, cat. A2786), 97.3 U/mL penicillin-streptomycin (Invitrogen, cat. 15140122), 1.9 mM L-glutamine (Invitrogen, cat. 25030081), and 9.7 microM Y-27632 dihydrochloride (Tocris Bioscience, Bristol, United Kingdom, cat. 1254). The PDCs were cultured in complete DMEM/F12 media without 9.7 microM Y-27632 dihydrochloride for at least two passages prior to the screen. The established cell line HOP-62 was cultured in RPMI 1640 medium, HEPES (Invitrogen, cat. 22400105) with 10% defined fetal bovine serum (HyClone Laboratories Inc., cat. SH30070.03) and 2 mM L-glutamine (Invitrogen, cat. 25030081). The pooled donor HUVEC were cultured in endothelial cell growth medium 2 (PromoCell, Heidelberg, Germany, cat. C-22011) and the hMSC were cultured in mesenchymal stem cell growth medium 2 (PromoCell, cat. C-28009). For all experiments, HUVEC and hMSC were used at passages </=5, while the malignant cell lines were used at passages </=15. […]

[1] = second compound 0.1 µM, first compound 0.000316 µM
[2] = second compound 0.1 µM, first compound 0.001 µM
[3] = second compound 0.1 µM, first compound 0.00316 µM
[4] = second compound 0.1 µM, first compound 0.01 µM
[5] = second compound 0.1 µM, first compound 0.0316 µM
[6] = second compound 0.316 µM, first compound 0.000316 µM
[7] = second compound 0.316 µM, first compound 0.001 µM
[8] = second compound 0.316 µM, first compound 0.00316 µM
[9] = second compound 0.316 µM, first compound 0.01 µM
[10] = second compound 0.316 µM, first compound 0.0316 µM
[11] = second compound 1 µM, first compound 0.000316 µM
[12] = second compound 1 µM, first compound 0.001 µM
[13] = second compound 1 µM, first compound 0.00316 µM
[14] = second compound 1 µM, first compound 0.01 µM
[15] = second compound 1 µM, first compound 0.0316 µM
[16] = second compound 3.16 µM, first compound 0.000316 µM
[17] = second compound 3.16 µM, first compound 0.001 µM
[18] = second compound 3.16 µM, first compound 0.00316 µM
[19] = second compound 3.16 µM, first compound 0.01 µM
[20] = second compound 3.16 µM, first compound 0.0316 µM
[21] = second compound 10 µM, first compound 0.000316 µM
[22] = second compound 10 µM, first compound 0.001 µM
[23] = second compound 10 µM, first compound 0.00316 µM
[24] = second compound 10 µM, first compound 0.01 µM
[25] = second compound 10 µM, first compound 0.0316 µM
[26] = second compound 0.1 µM, first compound 0.1 µM
[27] = second compound 0.316 µM, first compound 0.1 µM
[28] = second compound 1 µM, first compound 0.1 µM
[29] = second compound 3.16 µM, first compound 0.1 µM
[30] = second compound 10 µM, first compound 0.1 µM
[31] = second compound 0.1 µM, first compound 0.316 µM
[32] = second compound 0.1 µM, first compound 1 µM
[33] = second compound 0.1 µM, first compound 3.16 µM
[34] = second compound 0.1 µM, first compound 10 µM
[35] = second compound 0.316 µM, first compound 0.316 µM
[36] = second compound 0.316 µM, first compound 1 µM
[37] = second compound 0.316 µM, first compound 3.16 µM
[38] = second compound 0.316 µM, first compound 10 µM
[39] = second compound 1 µM, first compound 0.316 µM
[40] = second compound 1 µM, first compound 1 µM
[41] = second compound 1 µM, first compound 3.16 µM
[42] = second compound 1 µM, first compound 10 µM
[43] = second compound 3.16 µM, first compound 0.316 µM
[44] = second compound 3.16 µM, first compound 1 µM
[45] = second compound 3.16 µM, first compound 3.16 µM
[46] = second compound 3.16 µM, first compound 10 µM
[47] = second compound 10 µM, first compound 0.316 µM
[48] = second compound 10 µM, first compound 1 µM
[49] = second compound 10 µM, first compound 3.16 µM
[50] = second compound 10 µM, first compound 10 µM
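Further: spheroids exposed to agents for seven days before readout.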

CC(=O)Nc1cccc(-n2c(=O)n(C3CC3)c(=O)c3c(Nc4ccc(I)cc4F)n(C)c(=O)c(C)c32)c1 + C=CC(=O)N1CCN(c2nc(=O)n(-c3c(C)ccnc3C(C)C)c3nc(-c4c(O)cccc4F)c(F)cc23)C(C)C1
inactive: viability, T/C (second compound 0.1 µM, first compound 0.0001 µM) 27.9% | viability, T/C [1] 26.2% | viability, T/C [2] 20.3% | viability, T/C [3] 21.6% | viability, T/C [4] 19.6% | viability, T/C [5] 19.3% | viability, T/C (second compound 0.316 µM, first compound 0.0001 µM) 26% | viability, T/C [6] 25.4% | viability, T/C [7] 24.1% | viability, T/C [8] 22.9% | viability, T/C [9] 20.2% | viability, T/C [10] 19.3% | viability, T/C (second compound 1 µM, first compound 0.0001 µM) 27.5% | viability, T/C [11] 28.3% | viability, T/C [12] 24.2% | viability, T/C [13] 23.6% | viability, T/C [14] 22.3% | viability, T/C [15] 20.4% | viability, T/C (second compound 3.16 µM, first compound 0.0001 µM) 27.3% | viability, T/C [16] 30.1% | viability, T/C [17] 26.9% | viability, T/C [18] 25.9% | viability, T/C [19] 28.6% | viability, T/C [20] 23.4% | viability, T/C (second compound 10 µM, first compound 0.0001 µM) 35.8% | viability, T/C [21] 31.4% | viability, T/C [22] 36.3% | viability, T/C [23] 36.2% | viability, T/C [24] 29.6% | viability, T/C [25] 29%
< 0.1 nM: IC50 (second compound 0.1 µM) | IC50 (second compound 0.316 µM) | IC50 (second compound 1 µM) | IC50 (second compound 3.16 µM) | IC50 (second compound 10 µM)

CC(C)n1nc(-c2ccc3oc(N)nc3c2)c2c(N)ncnc21 + C=CC(=O)N1CCN(c2nc(=O)n(-c3c(C)ccnc3C(C)C)c3nc(-c4c(O)cccc4F)c(F)cc23)C(C)C1
active: viability, T/C [3] 8.16% | viability, T/C [4] 5.92% | viability, T/C [5] 4.43% | viability, T/C [26] 3.9% | viability, T/C [8] 10.2% | viability, T/C [9] 6.98% | viability, T/C [10] 4.02% | viability, T/C [27] 3.22% | viability, T/C [13] 9.95% | viability, T/C [14] 7.7% | viability, T/C [15] 4.43% | viability, T/C [28] 5.61% | viability, T/C [20] 6% | viability, T/C [29] 6.12%
< 0.316 nM: IC50 (second compound 0.1 µM) | IC50 (second compound 0.316 µM) | IC50 (second compound 1 µM) | IC50 (second compound 3.16 µM) | IC50 (second compound 10 µM)
inactive: viability, T/C [1] 13.2% | viability, T/C [2] 17% | viability, T/C [6] 13.8% | viability, T/C [7] 11.7% | viability, T/C [11] 15% | viability, T/C [12] 11% | viability, T/C [16] 14.2% | viability, T/C [17] 16.4% | viability, T/C [18] 13.3% | viability, T/C [19] 9.65% | viability, T/C [21] 17.3% | viability, T/C [22] 16.8% | viability, T/C [23] 16.5% | viability, T/C [24] 15.2% | viability, T/C [25] 11.3% | viability, T/C [30] 11.2%

COc1cc(Nc2ncc3c(n2)-c2ccc(Cl)cc2C(c2c(F)cccc2OC)=NC3)ccc1C(=O)O + C=CC(=O)N1CCN(c2nc(=O)n(-c3c(C)ccnc3C(C)C)c3nc(-c4c(O)cccc4F)c(F)cc23)C(C)C1
< 31.6 nM: IC50 (second compound 0.1 µM) | IC50 (second compound 0.316 µM) | IC50 (second compound 1 µM) | IC50 (second compound 3.16 µM) | IC50 (second compound 10 µM)
inactive: viability, T/C [5] 24.9% | viability, T/C [26] 17.2% | viability, T/C [31] 16% | viability, T/C [32] 22.7% | viability, T/C [33] 25.7% | viability, T/C [34] 17.3% | viability, T/C [10] 29.3% | viability, T/C [27] 26.2% | viability, T/C [35] 26.3% | viability, T/C [36] 25.5% | viability, T/C [37] 24.4% | viability, T/C [38] 16.7% | viability, T/C [15] 17.9% | viability, T/C [28] 27.4% | viability, T/C [39] 31% | viability, T/C [40] 26.4% | viability, T/C [41] 24.1% | viability, T/C [42] 21% | viability, T/C [20] 25.5% | viability, T/C [29] 29.6% | viability, T/C [43] 31.5% | viability, T/C [44] 29% | viability, T/C [45] 25.7% | viability, T/C [46] 22.4% | viability, T/C [25] 37% | viability, T/C [30] 38.5% | viability, T/C [47] 35.2% | viability, T/C [48] 32% | viability, T/C [49] 28.1% | viability, T/C [50] 25.8%

COc1cc2nccc(Oc3ccc(NC(=O)C4(C(=O)Nc5ccc(F)cc5)CC4)cc3)c2cc1OC + C=CC(=O)N1CCN(c2nc(=O)n(-c3c(C)ccnc3C(C)C)c3nc(-c4c(O)cccc4F)c(F)cc23)C(C)C1
< 31.6 nM: IC50 (second compound 0.1 µM) | IC50 (second compound 0.316 µM) | IC50 (second compound 1 µM) | IC50 (second compound 3.16 µM) | IC50 (second compound 10 µM)
active: viability, T/C [33] 7.75% | viability, T/C [34] 8.03% | viability, T/C [37] 6.81% | viability, T/C [38] 8.86% | viability, T/C [41] 6.93% | viability, T/C [42] 8.12% | viability, T/C [46] 8.84% | viability, T/C [50] 9.93%
inactive: viability, T/C [5] 14.6% | viability, T/C [26] 14.5% | viability, T/C [31] 12.8% | viability, T/C [32] 11.6% | viability, T/C [10] 15% | viability, T/C [27] 15.7% | viability, T/C [35] 11.6% | viability, T/C [36] 11.6% | viability, T/C [15] 17.4% | viability, T/C [28] 16.8% | viability, T/C [39] 14.5% | viability, T/C [40] 12.3% | viability, T/C [20] 17.6% | viability, T/C [29] 16.4% | viability, T/C [43] 15.3% | viability, T/C [44] 16.7% | viability, T/C [45] 7.9% | viability, T/C [25] 19.1% | viability, T/C [30] 19.5% | viability, T/C [47] 15.3% | viability, T/C [48] 13% | viability, T/C [49] 8.1%
